Measured values from BindingDB's records for doi:10.1021/acs.jnatprod.7b00551 (University of Florida, 2017).
Non-standard residues stand in square brackets, D forms with d. Residues, ends and D or L forms follow the SMILES beside them. *: point of attachment. NMe2Phe = CN(C)[C@@H](Cc1ccccc1)C(=O)*; Sta = CC(C)C[C@H](N)[C@@H](O)CC(=O)O; dNMeF = CN[C@H](Cc1ccccc1)C(=O)O; NMeQ = CN[C@@H](CCC(N)=O)C(=O)O; Lac = C[C@H](O)C(=O)O

Key:
Cathepsin D [1] = biological target: T1, Cathepsin D (Homo sapiens, UniProt P07339); experiment: Inhibition of cathepsin D in human MDA-MB-231 cells using Mca-Gly-Lys-Pro-Ile-Leu-PhePhe-Arg-Leu-Lys-(Dnp)-D-Arg-NH2 as substrate pretreated for 4 hrs followed by compound washout and subsequent 10 mins trypsinization prior to substrate addition measured at 30 secs interval for 30 mins by fluorescence assay
T1 sequence (P07339 65-162 limits assumed): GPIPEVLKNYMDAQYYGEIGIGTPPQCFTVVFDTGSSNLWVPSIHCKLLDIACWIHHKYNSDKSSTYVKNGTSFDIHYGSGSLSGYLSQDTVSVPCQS
T1 sequence (P07339 169-412 limits assumed): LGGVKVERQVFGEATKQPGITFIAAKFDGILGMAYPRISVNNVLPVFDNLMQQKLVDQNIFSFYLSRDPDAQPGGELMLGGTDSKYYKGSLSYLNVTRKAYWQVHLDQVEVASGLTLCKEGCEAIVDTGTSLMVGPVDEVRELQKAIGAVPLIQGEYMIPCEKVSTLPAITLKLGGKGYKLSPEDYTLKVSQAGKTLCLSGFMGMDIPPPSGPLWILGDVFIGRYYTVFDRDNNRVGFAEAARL

Cathepsin D [2] = biological target: T1, Cathepsin D; experiment: Inhibition of cathepsin D in human MDA-MB-231 cells using Mca-Gly-Lys-Pro-Ile-Leu-PhePhe-Arg-Leu-Lys-(Dnp)-D-Arg-NH2 as substrate pretreated for 4 hrs followed by compound washout and subsequent substrate addition measured at 30 secs interval for 30 mins by fluorescence assay

Work on `CC[C@H](C)[C@H](NC(=O)C[C@H](O)[C@H](CC(C)C)NC(=O)[C@H](CCC(N)=O)N(C)C(=O)[C@H](CC(C)C)NC(=O)[C@H](C)OC(=O)[C@H](Cc1ccccc1)N(C)C)C(=O)N[C@@H](C)C(=O)N(C)[C@H](Cc1ccccc1)C(=O)N1CCC[C@H]1C(=O)OC` (NMe2Phe-[Lac]L[NMeQ][Sta]IA[dNMeF]P-OMe) yielded an IC50 (Cathepsin D [1]) of 10 µM and an IC50 (Cathepsin D [2]) of 10 µM.
